# Measurements taken from ChEMBL document CHEMBL1201862, “PubChem BioAssay data set” (2004).
# Activity calls are given as the source filed them.
# Assays:
# X-box-binding protein 1 = X-box-binding protein 1 (Homo sapiens, UniProt P17861); type: functional, Cricetulus griseus;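 further: confirmatory dose-response counter-screen serving a CHOP assay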
# [1] = molecular target: Acyl-homoserine lactone acylase PvdQ (Pseudomonas aeruginosa (strain LESB58), UniProt Q9I194); assay: P. aeruginosa PvdQ acylase inhibitors, dose response, biochemical, fluorescence, plate reader and imaging, cherry-picks (AID 493231)
# [2] = molecular target: T1, Nucleotide-binding oligomerization domain-containing protein 1 (Homo sapiens, UniProt Q9Y239); assay: NOD1 signaling inhibitors, SAR follow-up, revised (AID 2333); type: functional
# T1 sequence (Q9Y239 whole entry): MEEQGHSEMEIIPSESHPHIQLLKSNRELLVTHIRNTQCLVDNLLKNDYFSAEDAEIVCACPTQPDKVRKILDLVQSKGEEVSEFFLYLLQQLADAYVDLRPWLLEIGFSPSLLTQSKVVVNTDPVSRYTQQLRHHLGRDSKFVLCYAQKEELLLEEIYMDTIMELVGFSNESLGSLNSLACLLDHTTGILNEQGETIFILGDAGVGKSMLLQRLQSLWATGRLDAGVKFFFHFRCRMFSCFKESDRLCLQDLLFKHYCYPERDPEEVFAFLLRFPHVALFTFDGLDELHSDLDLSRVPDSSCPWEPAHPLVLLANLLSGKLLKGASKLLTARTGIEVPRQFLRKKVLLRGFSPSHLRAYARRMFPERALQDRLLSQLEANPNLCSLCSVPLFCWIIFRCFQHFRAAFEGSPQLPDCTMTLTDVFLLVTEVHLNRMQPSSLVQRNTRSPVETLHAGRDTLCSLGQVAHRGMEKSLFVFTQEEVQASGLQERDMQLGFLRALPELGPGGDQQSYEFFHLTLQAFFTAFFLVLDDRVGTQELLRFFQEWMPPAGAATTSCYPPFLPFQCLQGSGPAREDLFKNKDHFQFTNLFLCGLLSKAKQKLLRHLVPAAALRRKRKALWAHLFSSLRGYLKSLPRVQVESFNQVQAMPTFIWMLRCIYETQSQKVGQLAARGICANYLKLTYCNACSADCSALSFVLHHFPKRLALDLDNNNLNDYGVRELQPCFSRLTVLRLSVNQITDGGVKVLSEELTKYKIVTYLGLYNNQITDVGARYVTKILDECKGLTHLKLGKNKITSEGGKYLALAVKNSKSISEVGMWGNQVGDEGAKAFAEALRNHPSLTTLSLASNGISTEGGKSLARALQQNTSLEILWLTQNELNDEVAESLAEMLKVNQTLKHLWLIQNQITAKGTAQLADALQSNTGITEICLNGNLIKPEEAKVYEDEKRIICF
# [3] = A Cell Based Secondary Assay To Explore Cytotoxicity of Compounds that Sensitize Mycobacterium Tuberculosis to Beta-Lactam Antibiotics.; type: functional
# Estrogen receptor [4] = molecular target: T2, Estrogen receptor (Homo sapiens, UniProt P03372); assay: potentiators of ERα–SRC-1 coactivator binding, dose response, biochemical, TR-FRET, ERα LBD (AID 737)
# T2 sequence (P03372 whole entry): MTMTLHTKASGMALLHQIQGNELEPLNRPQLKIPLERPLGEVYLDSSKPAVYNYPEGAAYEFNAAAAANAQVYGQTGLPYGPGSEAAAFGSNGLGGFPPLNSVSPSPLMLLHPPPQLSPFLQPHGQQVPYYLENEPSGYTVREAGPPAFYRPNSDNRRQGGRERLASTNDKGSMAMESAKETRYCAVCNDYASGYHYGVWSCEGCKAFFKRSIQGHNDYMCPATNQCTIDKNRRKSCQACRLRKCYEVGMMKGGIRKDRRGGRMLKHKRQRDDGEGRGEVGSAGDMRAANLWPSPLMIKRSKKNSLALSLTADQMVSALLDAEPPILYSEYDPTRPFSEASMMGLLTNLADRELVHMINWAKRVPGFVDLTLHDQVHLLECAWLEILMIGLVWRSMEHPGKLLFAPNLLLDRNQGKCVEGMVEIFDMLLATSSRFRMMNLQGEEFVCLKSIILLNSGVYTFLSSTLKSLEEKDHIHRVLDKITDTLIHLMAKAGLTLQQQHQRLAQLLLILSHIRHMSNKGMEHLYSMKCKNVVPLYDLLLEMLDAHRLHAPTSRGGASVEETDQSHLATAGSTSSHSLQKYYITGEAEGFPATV
# HEK293 [5] = assay: cells; settings: Homo sapiens
# Tumor necrosis factor = Tumor necrosis factor (Homo sapiens, UniProt P01375); assay: TNFa-triggered NF-kB activation inhibitors, SAR follow-up, cell-based, revised (AID 2337); type: functional
# [6] = molecular target: Nucleotide-binding oligomerization domain-containing protein 2 (Homo sapiens, UniProt Q9HC29); assay: PubChem AID 2334; type: functional
# [7] = molecular target: Scavenger receptor class B member 1 (Mus musculus, UniProt Q61009); assay: inhibitors of SR-BI mediated HDL lipid uptake, dose response, ldlA[mSR-BI] cells, fluorescence, cherry pick (AID 493194); type: functional, cell-based;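 further: cellular uptake of fluorescent DiI-labeled HDL measured as cell fluorescence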
# Estrogen receptor [8] = molecular target: T2, Estrogen receptor
# [9] = molecular target: Luciferin 4-monooxygenase (Photinus pyralis, UniProt P08659); assay: In vitro luciferase assay using purified luciferase. [Related pubchem assays: 1299, 1270, 1295, 1375, 1287, 1281, 1293, 1291, 1289, 1280, 465, 1364, 1282, 1372, 1365, 1370, 1367, 1366, 1266, 1373, 1292, 1290, 1302, 1371, 1283, 1271, 1294, 1374, 1368, 1369 ]
# [10] = molecular target: T3, Heat shock factor protein 1 (Mus musculus, UniProt P38532); assay: inhibition of MG132-induced HSE-luciferase signal, confirmation, cell-based, NIH3T3, luminescence, dose retest (AID 2382); type: functional;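 further: NIH3T3 fibroblasts with HSF1-driven luciferase reporter stressed by proteasome inhibitor MG132; luminescence from HSF1-driven luciferase expression after 8 hours of MG132 stress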
# T3 sequence (P38532 whole entry): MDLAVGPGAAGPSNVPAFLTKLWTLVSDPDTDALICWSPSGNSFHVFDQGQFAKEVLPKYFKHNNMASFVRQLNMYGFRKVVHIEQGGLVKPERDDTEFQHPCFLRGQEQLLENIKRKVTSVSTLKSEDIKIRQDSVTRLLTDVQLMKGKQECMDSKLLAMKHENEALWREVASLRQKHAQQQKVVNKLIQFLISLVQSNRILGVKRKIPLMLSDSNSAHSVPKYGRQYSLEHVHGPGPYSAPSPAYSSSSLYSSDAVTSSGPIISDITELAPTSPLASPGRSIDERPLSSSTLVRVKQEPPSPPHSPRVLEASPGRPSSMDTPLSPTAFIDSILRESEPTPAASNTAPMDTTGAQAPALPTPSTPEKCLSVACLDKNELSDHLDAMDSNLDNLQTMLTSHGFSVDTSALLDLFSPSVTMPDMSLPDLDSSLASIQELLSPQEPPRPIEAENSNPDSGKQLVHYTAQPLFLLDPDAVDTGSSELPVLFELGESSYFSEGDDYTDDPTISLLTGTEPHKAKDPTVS
# [11] = Luminescence Cell-Based Dose Response HTS to Identify Inhibitors of 5'UTR Stem-Loop Driven Prion Protein mRNA Translation in H4 Neuroglioblastoma Cells. [Related pubchem assays: 1827 (Project Summary), 1813 (Primary HTS)]; type: functional
# HEK293 [12] = assay: Cytotoxicity assay in HEK293 cells. [Related pubchem assays (depositor defined):AID1266, AID1269, AID1270, AID1271, AID1280, AID1281, AID1282, AID1283, AID1287, AID1289, AID1290, AID1291, AID1292, AID1293, AID1294, AID1295, AID1299, AID1302, AID1364, AID1365, AID1366, AID1367, AID1369, AID1370, AID1371, AID1372, AID1373, AID1374, AID1375, AID1384 …; type: functional, cell-based; settings: Homo sapiens
# [13] = molecular target: T4, Microphthalmia-associated transcription factor (Homo sapiens, UniProt O75030); assay: TRPM1 promoter luciferase signal decrease, dose response, MITF inhibitor project, cell-based, SK-MEL-5, cherry-picked, set 3 (AID 493073); type: functional
# T4 sequence (O75030 whole entry): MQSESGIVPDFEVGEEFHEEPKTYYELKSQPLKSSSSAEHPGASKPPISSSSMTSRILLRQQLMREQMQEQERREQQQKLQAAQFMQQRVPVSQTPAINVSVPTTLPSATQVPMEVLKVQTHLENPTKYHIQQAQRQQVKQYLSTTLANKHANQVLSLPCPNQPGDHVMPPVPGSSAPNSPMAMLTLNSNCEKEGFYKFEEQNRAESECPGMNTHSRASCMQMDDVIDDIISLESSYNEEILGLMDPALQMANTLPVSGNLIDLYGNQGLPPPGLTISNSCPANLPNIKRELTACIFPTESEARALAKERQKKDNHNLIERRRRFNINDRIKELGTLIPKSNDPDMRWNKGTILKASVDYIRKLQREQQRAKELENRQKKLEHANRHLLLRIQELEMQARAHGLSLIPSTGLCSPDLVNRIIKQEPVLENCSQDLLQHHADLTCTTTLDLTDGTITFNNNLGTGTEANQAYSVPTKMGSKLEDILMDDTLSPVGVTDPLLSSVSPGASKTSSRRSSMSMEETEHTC
# [14] = Luminescence-based counterscreen assay for KLF5 inhibitors: dose response cell-based high throughput screening assay to identify cytotoxic compounds using the IEC-6 intestinal epithelial cell line. [Related pubchem assays: 1700 (Primary screen.), 1834 (Confirmation screen.), 1858 (Summary AID.), 1905 (Counterscreen.)]; type: functional
# [15] = cytotoxicity in HEK-293T cells, dose response, cytotoxicity control for TCR NF-kB inhibitor project, luminescence, T-cell screen hits (AID 489026); type: functional, cell-based;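 further: cells exposed to compound about 14 hours before the viability readout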
# [16] = inhibitors of firefly luciferase expression or activity, dose response, H4 neuroglioma cells, luminescence (AID 1990); type: functional, cell-based
# HEK293 [17] = assay: PMA/Ionomycin induced NF-kB luciferase assay in 293- NF-kB-Luc stable cells. [Related pubchem assays: 1299, 1270, 1295, 1375, 1287, 1281, 1293, 1291, 1289, 1280, 465, 1364, 1282, 1372, 1365, 1370, 1367, 1366, 1269, 1373, 1292, 1290, 1302, 1371, 1283, 1271, 1294, 1374, 1368, 1369 ]; type: functional, cell-based; settings: Homo sapiens
# [18] = molecular target: Voltage-gated N-type calcium channel alpha-1B subunit/Amyloid beta A4 precursor protein-binding family A member 1 (Homo sapiens, UniProt Q00975+Q02410); assay: disruptors of Mint-PDZ/N-type channel peptide interaction – biochemical, HTRF, set 2, SAR follow-up (AID 434980); type: functional
# Collagenase 3 = Collagenase 3 (Homo sapiens, UniProt P45452); assay: MMP13 inhibition and MMP selectivity, late-stage follow-up, selectivity assay for MMP13 inhibitor project, biochemical, probe development, late stage results, panel member MMP-13 [IC50 Assay] (AID 2067)
# Neutrophil collagenase = Neutrophil collagenase (Homo sapiens, UniProt P22894); assay: MMP13 inhibition and MMP selectivity, late-stage follow-up, selectivity assay for MMP13 inhibitor project, biochemical, probe development, late stage results, panel member MMP-8 [IC50 Assay] (AID 2067)
# Neutrophil collagenase, sequence (P22894 whole entry): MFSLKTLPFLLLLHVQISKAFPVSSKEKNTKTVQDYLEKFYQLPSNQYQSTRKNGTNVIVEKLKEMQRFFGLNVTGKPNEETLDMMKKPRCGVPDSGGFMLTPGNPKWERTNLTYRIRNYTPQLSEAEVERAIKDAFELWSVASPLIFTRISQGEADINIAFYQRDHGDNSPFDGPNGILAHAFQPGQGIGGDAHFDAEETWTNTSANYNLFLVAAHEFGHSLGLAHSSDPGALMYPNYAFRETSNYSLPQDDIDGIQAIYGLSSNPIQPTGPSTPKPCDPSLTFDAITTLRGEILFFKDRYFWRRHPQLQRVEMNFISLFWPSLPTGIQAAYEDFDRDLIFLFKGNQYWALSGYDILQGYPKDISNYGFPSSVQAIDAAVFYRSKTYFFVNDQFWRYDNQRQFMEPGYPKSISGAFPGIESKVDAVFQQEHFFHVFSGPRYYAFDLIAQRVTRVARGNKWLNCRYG
# Voltage-gated N-type calcium channel alpha-1B subunit/Amyloid beta A4 precursor protein-binding family A member 1, sequence (Q00975 whole entry): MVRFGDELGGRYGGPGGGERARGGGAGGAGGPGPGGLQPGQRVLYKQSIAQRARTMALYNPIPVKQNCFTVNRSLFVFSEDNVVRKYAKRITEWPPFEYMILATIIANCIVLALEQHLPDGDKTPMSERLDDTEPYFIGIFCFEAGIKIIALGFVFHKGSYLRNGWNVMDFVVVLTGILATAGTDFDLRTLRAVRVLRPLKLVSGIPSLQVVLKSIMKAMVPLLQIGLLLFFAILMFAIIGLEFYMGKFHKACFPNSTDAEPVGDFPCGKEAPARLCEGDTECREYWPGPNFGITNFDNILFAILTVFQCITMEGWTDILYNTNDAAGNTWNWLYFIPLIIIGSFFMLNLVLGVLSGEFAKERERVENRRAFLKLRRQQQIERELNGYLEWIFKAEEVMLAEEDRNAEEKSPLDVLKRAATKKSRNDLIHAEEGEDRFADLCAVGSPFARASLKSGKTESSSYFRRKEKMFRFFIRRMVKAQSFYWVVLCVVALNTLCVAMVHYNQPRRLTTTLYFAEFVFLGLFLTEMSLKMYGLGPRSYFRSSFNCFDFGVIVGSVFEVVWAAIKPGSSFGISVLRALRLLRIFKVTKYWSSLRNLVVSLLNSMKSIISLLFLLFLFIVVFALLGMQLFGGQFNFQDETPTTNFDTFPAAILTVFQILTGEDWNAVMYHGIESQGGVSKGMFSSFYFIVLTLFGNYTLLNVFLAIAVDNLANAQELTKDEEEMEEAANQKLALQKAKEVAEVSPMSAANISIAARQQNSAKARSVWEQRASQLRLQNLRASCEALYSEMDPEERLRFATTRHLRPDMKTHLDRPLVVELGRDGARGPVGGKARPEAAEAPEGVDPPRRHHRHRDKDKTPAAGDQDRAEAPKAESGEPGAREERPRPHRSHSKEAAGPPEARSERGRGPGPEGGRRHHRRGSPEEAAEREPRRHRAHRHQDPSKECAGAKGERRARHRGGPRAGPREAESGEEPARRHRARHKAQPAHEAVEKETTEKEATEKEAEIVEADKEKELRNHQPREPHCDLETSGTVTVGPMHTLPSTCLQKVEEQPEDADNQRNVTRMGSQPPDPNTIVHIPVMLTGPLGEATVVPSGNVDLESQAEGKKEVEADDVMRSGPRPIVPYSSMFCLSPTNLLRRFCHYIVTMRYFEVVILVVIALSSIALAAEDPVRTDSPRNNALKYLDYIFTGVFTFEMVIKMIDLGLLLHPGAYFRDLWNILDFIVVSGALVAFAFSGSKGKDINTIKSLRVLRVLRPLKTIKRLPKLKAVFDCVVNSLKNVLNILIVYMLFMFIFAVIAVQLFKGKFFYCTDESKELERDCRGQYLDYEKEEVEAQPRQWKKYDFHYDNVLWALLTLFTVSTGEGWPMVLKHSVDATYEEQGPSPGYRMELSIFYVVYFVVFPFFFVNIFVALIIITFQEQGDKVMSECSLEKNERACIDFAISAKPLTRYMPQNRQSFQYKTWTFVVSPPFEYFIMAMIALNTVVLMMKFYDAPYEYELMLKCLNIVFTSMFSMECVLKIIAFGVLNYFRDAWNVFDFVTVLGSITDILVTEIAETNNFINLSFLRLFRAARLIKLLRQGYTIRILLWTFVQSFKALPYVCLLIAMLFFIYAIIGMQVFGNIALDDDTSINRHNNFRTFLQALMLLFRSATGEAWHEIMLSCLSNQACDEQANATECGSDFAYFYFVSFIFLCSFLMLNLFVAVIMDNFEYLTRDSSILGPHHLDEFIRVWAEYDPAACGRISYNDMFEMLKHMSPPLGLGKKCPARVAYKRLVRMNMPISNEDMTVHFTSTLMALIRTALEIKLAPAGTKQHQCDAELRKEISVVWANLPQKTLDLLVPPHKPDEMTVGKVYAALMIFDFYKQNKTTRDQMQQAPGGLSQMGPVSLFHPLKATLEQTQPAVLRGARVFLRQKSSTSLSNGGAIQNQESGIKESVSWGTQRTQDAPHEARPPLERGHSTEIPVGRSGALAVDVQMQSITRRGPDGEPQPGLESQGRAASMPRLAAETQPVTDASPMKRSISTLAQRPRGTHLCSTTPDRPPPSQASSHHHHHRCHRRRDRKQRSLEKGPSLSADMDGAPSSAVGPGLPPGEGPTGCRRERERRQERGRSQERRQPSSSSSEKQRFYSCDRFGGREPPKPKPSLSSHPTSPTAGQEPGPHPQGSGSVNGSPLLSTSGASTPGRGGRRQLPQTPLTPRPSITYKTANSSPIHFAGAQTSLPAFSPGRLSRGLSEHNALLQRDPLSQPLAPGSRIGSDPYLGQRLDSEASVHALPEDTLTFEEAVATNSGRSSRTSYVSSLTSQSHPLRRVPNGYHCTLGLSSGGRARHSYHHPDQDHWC
# Voltage-gated N-type calcium channel alpha-1B subunit/Amyloid beta A4 precursor protein-binding family A member 1, sequence (Q02410 whole entry): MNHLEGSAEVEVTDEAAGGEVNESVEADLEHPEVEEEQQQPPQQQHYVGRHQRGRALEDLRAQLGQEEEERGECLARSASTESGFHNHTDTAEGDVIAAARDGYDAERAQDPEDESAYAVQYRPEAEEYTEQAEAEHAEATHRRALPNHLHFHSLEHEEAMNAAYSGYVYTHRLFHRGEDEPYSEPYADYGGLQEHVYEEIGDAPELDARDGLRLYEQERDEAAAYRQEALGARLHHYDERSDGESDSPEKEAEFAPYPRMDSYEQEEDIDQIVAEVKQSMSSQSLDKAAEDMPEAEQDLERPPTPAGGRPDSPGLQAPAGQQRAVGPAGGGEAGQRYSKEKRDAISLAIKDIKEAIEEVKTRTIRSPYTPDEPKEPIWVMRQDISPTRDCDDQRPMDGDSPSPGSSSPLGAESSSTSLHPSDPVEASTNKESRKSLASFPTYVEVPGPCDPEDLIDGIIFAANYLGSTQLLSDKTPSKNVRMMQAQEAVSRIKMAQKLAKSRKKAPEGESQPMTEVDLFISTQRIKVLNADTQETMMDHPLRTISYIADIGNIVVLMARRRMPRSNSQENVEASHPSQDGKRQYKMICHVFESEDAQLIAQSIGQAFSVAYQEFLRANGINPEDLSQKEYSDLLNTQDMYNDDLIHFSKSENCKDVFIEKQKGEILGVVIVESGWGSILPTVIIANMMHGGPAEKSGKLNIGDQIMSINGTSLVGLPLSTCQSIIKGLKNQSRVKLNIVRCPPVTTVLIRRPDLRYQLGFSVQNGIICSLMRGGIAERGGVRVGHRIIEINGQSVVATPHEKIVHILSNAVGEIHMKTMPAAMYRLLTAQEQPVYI
# Tumor necrosis factor, sequence (P01375 whole entry, the tested form may be a part): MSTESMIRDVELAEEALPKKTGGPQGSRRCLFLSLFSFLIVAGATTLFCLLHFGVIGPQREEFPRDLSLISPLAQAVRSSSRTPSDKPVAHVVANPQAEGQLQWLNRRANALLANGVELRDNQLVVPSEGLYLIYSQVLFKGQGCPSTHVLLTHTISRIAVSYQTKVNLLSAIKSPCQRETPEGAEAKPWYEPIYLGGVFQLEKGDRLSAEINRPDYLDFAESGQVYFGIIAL
# Nucleotide-binding oligomerization domain-containing protein 2, sequence (Q9HC29 whole entry, the tested form may be a part): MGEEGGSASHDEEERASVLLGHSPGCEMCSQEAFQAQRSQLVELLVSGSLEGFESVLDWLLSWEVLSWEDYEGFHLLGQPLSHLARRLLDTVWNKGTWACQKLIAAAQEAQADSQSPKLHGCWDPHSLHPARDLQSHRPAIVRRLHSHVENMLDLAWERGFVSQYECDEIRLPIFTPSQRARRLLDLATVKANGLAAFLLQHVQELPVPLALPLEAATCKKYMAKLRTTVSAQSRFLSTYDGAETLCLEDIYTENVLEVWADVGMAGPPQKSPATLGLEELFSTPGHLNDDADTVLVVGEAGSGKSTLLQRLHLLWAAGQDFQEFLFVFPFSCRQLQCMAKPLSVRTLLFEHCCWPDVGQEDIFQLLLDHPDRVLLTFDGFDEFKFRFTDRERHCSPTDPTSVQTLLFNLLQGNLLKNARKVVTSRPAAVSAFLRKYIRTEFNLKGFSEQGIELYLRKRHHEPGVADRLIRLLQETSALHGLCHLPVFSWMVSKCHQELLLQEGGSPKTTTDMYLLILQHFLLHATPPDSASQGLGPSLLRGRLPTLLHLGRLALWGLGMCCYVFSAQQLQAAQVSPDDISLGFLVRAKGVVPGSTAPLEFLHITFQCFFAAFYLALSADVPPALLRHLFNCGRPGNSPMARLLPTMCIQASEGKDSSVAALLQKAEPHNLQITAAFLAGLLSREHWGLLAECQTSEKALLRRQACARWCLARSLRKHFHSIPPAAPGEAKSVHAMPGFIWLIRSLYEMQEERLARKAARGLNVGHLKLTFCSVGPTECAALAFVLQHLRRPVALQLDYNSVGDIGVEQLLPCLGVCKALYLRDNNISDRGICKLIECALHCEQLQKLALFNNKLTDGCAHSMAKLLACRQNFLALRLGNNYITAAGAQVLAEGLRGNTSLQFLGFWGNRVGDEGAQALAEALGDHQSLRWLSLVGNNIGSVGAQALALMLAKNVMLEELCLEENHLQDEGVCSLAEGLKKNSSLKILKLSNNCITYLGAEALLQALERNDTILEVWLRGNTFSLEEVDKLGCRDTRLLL
smiles,measurement,setting,value
CCC(C)(C)NC(=O)C(c1cccn1C)N(C(=O)Cn1nnc2ccccc21)c1ccc(F)cc1 (configuration not stated),Absolute IC50 (XBP1),X-box-binding protein 1,10 µM
Cc1ccc([S+]([O-])c2ccc(C)cc2)cc1,AC50,[1],2.65 µM (active)
Cc1ccc(Cn2c(NC(=O)c3ccco3)nc3ccccc32)cc1,IC50,[2],> 20 µM (inactive)
same,CC50,[3],10.1 µM (active)
same,EC50,Estrogen receptor [4],14.6 µM (active)
same,IC50,HEK293 [5],> 20 µM (inactive)
same,IC50,Tumor necrosis factor,> 20 µM (inactive)
same,IC50,[6],> 20 µM (inactive)
CCOC(=O)c1c(Nc2nc(C)c(C(=O)NC)s2)sc(C)c1C,AC50,[7],11.6 µM (active)
same,IC50,Estrogen receptor [8],42.3 µM (not active)
COC(=O)C1=C(CN2CCCc3ccccc32)NC(=O)NC1c1ccc(F)cc1 (configuration not stated),EC50,[9],> 8 µM (not active)
same,EC50,[10],8.88 µM (active)
same,EC50,[11],12.4 µM (active)
same,EC50,HEK293 [12],> 8 µM (inactive)
same,AC50,[13],2.16 µM (active)
same,IC50,[14],> 39.8 µM (not active)
same,IC50,[15],> 80 µM (inactive)
same,EC50,[16],6.69 µM (inconclusive)
same,EC50,HEK293 [17],9.82 µM (not active)
CN(CCc1ccccc1)C(=O)c1cc(-c2ccco2)nc2ccccc12,IC50,[18],> 56.8 µM (inactive)
O=C(O)c1ccc(CSc2nc3c(c(=O)[nH]2)CCC3)cc1,IC50,Collagenase 3,> 39.8 µM (inactive)
same,IC50,Neutrophil collagenase,> 39.8 µM (inactive)
